{"source": "patent US6602908B2", "about": "“Suppression of carcinoma using high purity conjugated fatty acid” (priority 1999, dated 2003)", "key": {"Carcinogenesis": {"tested_on": "Carcinogenesis", "details": "in vivo; cited from earlier work"}, "breast cancer": {"tested_on": "breast cancer", "details": "mice; cited from earlier work"}, "mammary adenocarcinomas": {"tested_on": "mammary adenocarcinomas", "experiment": "Development of mammary tumors in laboratory animals fed dietary CLA", "type": "in vivo", "details": "for reduction in the total number of mammary adenocarcinomas: laboratory animals", "text": "The synthetically prepared conjugated linoleic acid (CLA) is an effective agent in inhibiting the development of mammary tumors. Laboratory animals fed a diet comprising 0.5%, 1%, or 1.5% by weight conjugated linoleic acid (CLA) have been seen to have a reduction in the total number of mammary adenocarcinomas, in the range of about 30%, 55%, and 60%, respectively. […] Final tumor incidence and cumulative tumor weights are diminished with the administration of a therapeutically effective amount of the purified conjugated linoleic acid (CLA)."}, "[1]": {"details": "therapeutically effective amount of purified CLA"}}}
{"compound": "CCCCC/C=C\\C/C=C\\CCCCCCCC(=O)O", "note": "[Linoleic acid, 9-cis, 12-cis octadecadienoic acid]", "values": [{"measurement": "effect on Carcinogenesis", "setting": "Carcinogenesis", "value": "enhance Carcinogenesis"}]}
{"compound": "conjugated linoleic acid [CLA]", "values": [{"measurement": "effect on breast cancer", "setting": "breast cancer", "value": "preventive effects"}, {"measurement": "inhibition of mammary cancer and protection against subsequent tumor occurrence", "setting": "mammary adenocarcinomas; dietary CLA between 0.1 and 0.5% by weight", "value": "dose-dependent inhibition"}, {"measurement": "reduction in the total number of mammary adenocarcinomas", "setting": "mammary adenocarcinomas; diet comprising 0.5% by weight CLA", "value": "about 30%"}, {"measurement": "reduction in the total number of mammary adenocarcinomas", "setting": "mammary adenocarcinomas; diet comprising 1% by weight CLA", "value": "~55", "unit": "%"}, {"measurement": "reduction in the total number of mammary adenocarcinomas", "setting": "mammary adenocarcinomas; diet comprising 1.5% by weight CLA", "value": "~60", "unit": "%"}, {"measurement": "cumulative tumor weights", "setting": "mammary adenocarcinomas; [1]", "value": "diminished"}, {"measurement": "final tumor incidence", "setting": "mammary adenocarcinomas; [1]", "value": "diminished"}]}
